Drawing on PubChem BioAssay (NCI), this text covers TGI for four molecules.

The structures appear in SMILES notation.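 In this assay, cells in 96-well plates receive the compound at five concentrations for 48 hours. Endpoints are linearly interpolated between the surrounding concentrations. The concentration for full growth arrest is given as TGI.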 Some results are limits rather than exact numbers.

The test system of one test is HOP-92 NSCLC. Nature of the test: DTP human tumour cell line panel, 48 h.
What is called TGI is the concentration at which net growth stops. A higher TGI goes with less potent growth arrest. Molecule `COC(=O)C(/C(=N/NC(N)=O)C(=O)Nc1ccc(C)cc1)c1nc2ccc([N+](=O)[O-])cc2[nH]c1=O` (centres undefined) registered a concentration for total growth inhibition (TGI) above 100 µM.

In another test the test system is HS 578T breast. Nature of the test: DTP human tumour cell line panel, 48 h.
As for `CC1(O)CC(C(F)(F)F)(C(F)(F)F)OC1=O` (centres undefined), the TGI is above 10 µM.

Molecule `CC1=C2C(=O)NN=C2CCN1c1ccc(Br)cc1` returned a TGI above 100 µM.

`O=C(NNC(=S)Nc1ccc(Cl)cc1)c1cc(-c2ccccc2)nc2ccccc12` gave a TGI of 32.4 µM.

In the case of `COC(=O)C(/C(=N/NC(N)=O)C(=O)Nc1ccc(C)cc1)c1nc2ccc([N+](=O)[O-])cc2[nH]c1=O` (centres undefined), the TGI is above 100 µM.

A further test has as its system HT29 colon. In words: DTP human tumour cell line panel, 48 h.
In turn, `CC1(O)CC(C(F)(F)F)(C(F)(F)F)OC1=O` (centres undefined) gave a TGI above 10 µM.

As to `CC1=C2C(=O)NN=C2CCN1c1ccc(Br)cc1`, the TGI was above 100 µM.

As for `O=C(NNC(=S)Nc1ccc(Cl)cc1)c1cc(-c2ccccc2)nc2ccccc12`, the TGI was 34.9 µM.

Molecule `COC(=O)C(/C(=N/NC(N)=O)C(=O)Nc1ccc(C)cc1)c1nc2ccc([N+](=O)[O-])cc2[nH]c1=O` (centres undefined) came in with a TGI above 100 µM.

Another test deals with IGROV1 ovarian. In words: DTP human tumour cell line panel, 48 h.
Molecule `CC1(O)CC(C(F)(F)F)(C(F)(F)F)OC1=O` (centres undefined) returned a TGI above 10 µM.

In the case of `CC1=C2C(=O)NN=C2CCN1c1ccc(Br)cc1`, the TGI is above 100 µM.

On to `O=C(NNC(=S)Nc1ccc(Cl)cc1)c1cc(-c2ccccc2)nc2ccccc12`, for which the TGI came to 26.7 µM.

In turn, `COC(=O)C(/C(=N/NC(N)=O)C(=O)Nc1ccc(C)cc1)c1nc2ccc([N+](=O)[O-])cc2[nH]c1=O` (centres undefined) had a concentration for total growth inhibition (TGI) above 100 µM.

For another test, the system named is K-562 leukemia. In words: DTP human tumour cell line panel, 48 h.
The molecule `CC1(O)CC(C(F)(F)F)(C(F)(F)F)OC1=O` (centres undefined) had a TGI above 10 µM.

In the case of `O=C(NNC(=S)Nc1ccc(Cl)cc1)c1cc(-c2ccccc2)nc2ccccc12`, the TGI worked out at 93.1 µM.

The molecule `COC(=O)C(/C(=N/NC(N)=O)C(=O)Nc1ccc(C)cc1)c1nc2ccc([N+](=O)[O-])cc2[nH]c1=O` (centres undefined) displayed a total growth inhibition concentration (TGI) above 100 µM.

In a further test the test system is KM12 colon. In words: DTP human tumour cell line panel, 48 h.
In turn, `CC1(O)CC(C(F)(F)F)(C(F)(F)F)OC1=O` (centres undefined) gave a TGI above 10 µM.

With `CC1=C2C(=O)NN=C2CCN1c1ccc(Br)cc1`, the TGI is above 100 µM.

With `O=C(NNC(=S)Nc1ccc(Cl)cc1)c1cc(-c2ccccc2)nc2ccccc12`, the TGI turned out to be 22.5 µM.

In the case of `COC(=O)C(/C(=N/NC(N)=O)C(=O)Nc1ccc(C)cc1)c1nc2ccc([N+](=O)[O-])cc2[nH]c1=O` (centres undefined), the TGI is above 100 µM.

A further test has as its system LOX IMVI melanoma. Nature of the test: DTP human tumour cell line panel, 48 h.
As for `CC1(O)CC(C(F)(F)F)(C(F)(F)F)OC1=O` (centres undefined), the TGI is above 10 µM.

Molecule `CC1=C2C(=O)NN=C2CCN1c1ccc(Br)cc1` had a TGI above 100 µM.

For `COC(=O)C(/C(=N/NC(N)=O)C(=O)Nc1ccc(C)cc1)c1nc2ccc([N+](=O)[O-])cc2[nH]c1=O` (centres undefined), the TGI is above 100 µM.

The next test relates to M14 melanoma. Nature of the test: DTP human tumour cell line panel, 48 h.
As for `CC1(O)CC(C(F)(F)F)(C(F)(F)F)OC1=O` (centres undefined), the TGI is above 10 µM.

`CC1=C2C(=O)NN=C2CCN1c1ccc(Br)cc1` yielded a TGI above 100 µM.

`O=C(NNC(=S)Nc1ccc(Cl)cc1)c1cc(-c2ccccc2)nc2ccccc12` returned a TGI of 18.7 µM.

As for `COC(=O)C(/C(=N/NC(N)=O)C(=O)Nc1ccc(C)cc1)c1nc2ccc([N+](=O)[O-])cc2[nH]c1=O` (centres undefined), the TGI is above 100 µM.

A further test deals with MALME-3M melanoma. Nature of the test: DTP human tumour cell line panel, 48 h.
`CC1(O)CC(C(F)(F)F)(C(F)(F)F)OC1=O` (centres undefined): the TGI is above 10 µM.

With `CC1=C2C(=O)NN=C2CCN1c1ccc(Br)cc1`, the TGI is above 100 µM.

Take `O=C(NNC(=S)Nc1ccc(Cl)cc1)c1cc(-c2ccccc2)nc2ccccc12`: the TGI worked out at 17.5 µM.

In the case of `COC(=O)C(/C(=N/NC(N)=O)C(=O)Nc1ccc(C)cc1)c1nc2ccc([N+](=O)[O-])cc2[nH]c1=O` (centres undefined), the TGI was above 100 µM.

For the next test, the system named is MCF7 breast. In words: DTP human tumour cell line panel, 48 h.
As to `CC1(O)CC(C(F)(F)F)(C(F)(F)F)OC1=O` (centres undefined), the TGI is above 10 µM.

In turn, `CC1=C2C(=O)NN=C2CCN1c1ccc(Br)cc1` yielded a TGI above 100 µM.

With `O=C(NNC(=S)Nc1ccc(Cl)cc1)c1cc(-c2ccccc2)nc2ccccc12`, the TGI came out at 17.3 µM.

On to `COC(=O)C(/C(=N/NC(N)=O)C(=O)Nc1ccc(C)cc1)c1nc2ccc([N+](=O)[O-])cc2[nH]c1=O` (centres undefined), for which the TGI is above 100 µM.

The next test relates to MDA-MB-231 breast. In words: DTP human tumour cell line panel, 48 h.
As for `CC1(O)CC(C(F)(F)F)(C(F)(F)F)OC1=O` (centres undefined), the concentration for total growth inhibition (TGI) is above 10 µM.

In the case of `CC1=C2C(=O)NN=C2CCN1c1ccc(Br)cc1`, the TGI was above 100 µM.

In turn, `O=C(NNC(=S)Nc1ccc(Cl)cc1)c1cc(-c2ccccc2)nc2ccccc12` gave a TGI of 29.4 µM.

For the molecule `COC(=O)C(/C(=N/NC(N)=O)C(=O)Nc1ccc(C)cc1)c1nc2ccc([N+](=O)[O-])cc2[nH]c1=O` (centres undefined), the TGI was above 100 µM.

The subject of another test is MDA-MB-435. In words: DTP human tumour cell line panel, 48 h.
Regarding `CC1(O)CC(C(F)(F)F)(C(F)(F)F)OC1=O` (centres undefined), the TGI was above 10 µM.

`CC1=C2C(=O)NN=C2CCN1c1ccc(Br)cc1` had a TGI above 100 µM.

Molecule `O=C(NNC(=S)Nc1ccc(Cl)cc1)c1cc(-c2ccccc2)nc2ccccc12` showed a TGI of 11.4 µM.

The molecule `COC(=O)C(/C(=N/NC(N)=O)C(=O)Nc1ccc(C)cc1)c1nc2ccc([N+](=O)[O-])cc2[nH]c1=O` (centres undefined) gave a TGI above 100 µM.

For a further test, the system named is MDA-N. In words: DTP human tumour cell line panel, 48 h.
On to `CC1(O)CC(C(F)(F)F)(C(F)(F)F)OC1=O` (centres undefined), for which the TGI was above 10 µM.

Take `CC1=C2C(=O)NN=C2CCN1c1ccc(Br)cc1`: the TGI is above 100 µM.

Consider `O=C(NNC(=S)Nc1ccc(Cl)cc1)c1cc(-c2ccccc2)nc2ccccc12`, for which the TGI is 6.5 µM.

In turn, `COC(=O)C(/C(=N/NC(N)=O)C(=O)Nc1ccc(C)cc1)c1nc2ccc([N+](=O)[O-])cc2[nH]c1=O` (centres undefined) registered a TGI above 100 µM.

The next test deals with MOLT-4 leukemia. In words: DTP human tumour cell line panel, 48 h.
As for `CC1(O)CC(C(F)(F)F)(C(F)(F)F)OC1=O` (centres undefined), the TGI was above 10 µM.

For the molecule `CC1=C2C(=O)NN=C2CCN1c1ccc(Br)cc1`, the TGI is above 100 µM.

The molecule `O=C(NNC(=S)Nc1ccc(Cl)cc1)c1cc(-c2ccccc2)nc2ccccc12` gave a TGI of 27.7 µM.

Molecule `COC(=O)C(/C(=N/NC(N)=O)C(=O)Nc1ccc(C)cc1)c1nc2ccc([N+](=O)[O-])cc2[nH]c1=O` (centres undefined) displayed a TGI above 100 µM.

The subject of a further test is NCI-H226 lung. Nature of the test: DTP human tumour cell line panel, 48 h.
The molecule `CC1(O)CC(C(F)(F)F)(C(F)(F)F)OC1=O` (centres undefined) came in with a TGI above 10 µM.

`CC1=C2C(=O)NN=C2CCN1c1ccc(Br)cc1` yielded a TGI above 100 µM.

In the case of `O=C(NNC(=S)Nc1ccc(Cl)cc1)c1cc(-c2ccccc2)nc2ccccc12`, the TGI was 28.9 µM.
